Measured values as given in patent publication US20040002119A1, “Method of predicting cell-based assay results using binding profiles” (priority 2002, published 2004).
Entries after “also recorded” stand apart in the source; their conditions may differ. Read-outs that look alike come from different tables or passages of the source. Blank lines part the entries; values can stand above or below the compound they belong to.

Legend:
ERα LBD = molecular target: T1, ERα LBD (Homo sapiens, UniProt P03372); type: binding
T1 sequence (P03372 311-547 limits assumed): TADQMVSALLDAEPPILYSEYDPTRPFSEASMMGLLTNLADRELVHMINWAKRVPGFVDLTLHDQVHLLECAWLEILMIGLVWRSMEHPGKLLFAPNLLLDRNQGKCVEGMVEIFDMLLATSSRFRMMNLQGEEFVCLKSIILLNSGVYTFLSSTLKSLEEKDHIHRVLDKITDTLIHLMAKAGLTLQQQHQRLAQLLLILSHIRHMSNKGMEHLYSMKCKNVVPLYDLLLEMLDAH
Text: The peptide sequences were synthesized with biotin at one end, and coupled to fluorescently distinct microsphere populations (5.6 μm streptavidin-coated latex microsphere particles). Multiple peptides of the same sequence were coupled to microspheres having the same fluorescent label, creating 46 fluorescently distinct microsphere populations (45 peptides plus no-peptide control). The microspheres populations were then multiplexed (combined). Alternatively, the ERα LBD could be coupled to the fluorescent microspheres.
The Estrogen Receptor a Ligand Binding Domain (ERα LBD) was coupled to the fluorophore Alexa 532 (Molecular Probes, Inc., Eugene, Oreg.), which is suitable for use with 532 nm excitation sources. The excitation and emission spectra of Alexa 532 is intermediate between the green-fluorescent Alexa Fluor 488 dye and the orange-fluorescent Alexa Fluor 546 dye.
The resulting binding of peptide to LBD is detected by flow cytometric analysis as is known in the art (see, e.g. WO 01/75443). In the present example, binding of ERα to a microsphere subset was indicated by the acquisition of orange fluorescence, detected using a LX-100 instrument (Luminex Corporation, Austin, Tex.). The above procedure is repeated for each compound to create a library of Binding Profiles.
Binding Profiles for each of the six phage-identified peptides described above were also generated using the same multiplexed assay as described above.

[1] = tested on: MCF-7 breast cancer cells; test: MCF-7 cell proliferation assay ([3H]-thymidine incorporation); type: cell-based, human; settings: CPM, FIG. 11
Description: MCF-7 potency=(pEC50 or pIC50)(% cpm max or % cpm min).
Cell proliferation of MCF-7 breast cancer cells was determined by [^3H]-thymidine incorporation. Compounds were tested for their potential to either stimulate MCF-7 proliferation or inhibit proliferation. An EC50 or IC50 was determined for each compound tested.

[2] = tested on: human endometrial cells (Ishikawa cell line); test: Ishikawa endometrial cell stimulation assay (intrinsic alkaline phosphatase); type: cell-based; settings: absorbance at 405 nm minus blank; FIG. 13
Description: The stimulation of human endometrial cells (Ishikawa cell line) was determined by increases in intrinsic alkaline phosphatase activity. […] The % Emax is defined as 100×(spectrophotometric reading at 405 nm with compound-blank)/(spectrophotometric reading at 405 nm estradiol-blank).

RAC3 (671-697) binding to ERα LBD relative to unliganded ERα LBD (ERα LBD): decreases
T1P3 peptide binding to ERα LBD over basal (ERα LBD): increased binding of T1P3 over basal
Compound: 4-OH tamoxifen
K7P2 peptide binding to ERα LBD over basal (ERα LBD): decreased binding of K7P2 over basal and not
binding of ERα LBD to coactivator, coregulator and corepressor peptides compared to basal (no compound) (ERα LBD): reduced the amount of peptide binding compared to basal binding; also recorded: decreases or only slightly increases binding

K7P2 peptide binding to ERα LBD over basal (ERα LBD; phage-identified peptide K7P2, 1 μM compound, FIG. 9): not
Compound: COc1ccc2c(c1)OC(C)(C)[C@@H](c1ccccc1)[C@@H]2c1ccc(OCCN2CCCC2)cc1 [levormeloxifene]

Compound: O=C(c1ccc(OCCN2CCCCC2)cc1)c1c(-c2ccc(O)cc2)sc2cc(O)ccc12 [raloxifene]
MCF-7 cell proliferation with increasing compound concentration [1]: cell proliferation decreased
stimulation of intrinsic alkaline phosphatase in Ishikawa cells [2]: very low stimulatory activity
